Our source for the IC50 and CC50 values is patent US10597390B2, “Indoles for use in influenza virus infection” (Janssen Sciences Ireland UC, priority 2014, dated 2020).

In series [1] the test system is influenza virus A/Taiwan/1/86 (H1N1). Briefly: organism not typed. It is filed as cell-based. Particulars: CPE in MDCK cells, three days post-virus exposure, ATPlite.
A further series can be described thus: in vitro. Conditions: dog, TOX MDCK CC50.

Regarding `CC(C)(C)[C@@H](CO)Nc1nc(-c2c[nH]c3c(F)cc(F)cc23)c(C#N)cc1F` [Compound 257, (S)-2-(5,7-difluoro-1H-indol-3-yl)-5-fluoro-6-((1-hydroxy-3,3-dimethyl-butan-2-yl)amino)nicotinonitrile], the IC50 in series [1] (MDCK, 72 h) is 130 nM. Besides, half-maximal cytotoxicity in the series “in vitro” (CC50 at 3 days) was put at 7000 nM. The compound `C=Cn1cnc(C(=O)N[C@@H]2CCC[C@H](Nc3nc(-c4c[nH]c5c(F)cc(F)cc45)ncc3F)C2)c1` [Compound 89] gave an IC50 in series [1] (MDCK, 72 h) of 4 nM. The CC50 at 3 days in “in vitro” is 7300 nM. The matching figures for `CCOC(=O)NCc1cc(F)c(NC(CC(=O)O)C(C)(C)C)nc1-c1c[nH]c2c(F)cc(F)cc12` (centres unmarked) [Compound 256]: 290 nM and 13100 nM. In the case of `Cn1cnc(C(=O)N[C@@H]2CCC[C@H](Nc3nc(-c4c[nH]c5c(F)cc(Cl)cc45)c(C#N)cc3F)C2)c1` [Compound 185], in series [1] (MDCK, 72 h), the IC50 came to 4 nM. It took 10200 nM to reach half-maximal cytotoxicity in “in vitro” (CC50 at 3 days). The matching figures for `Cc1[nH]nc(C(=O)N[C@@H]2CCC[C@H](Nc3nc(-c4c[nH]c5c(F)cc(F)cc45)ncc3F)C2)c1N` [Compound 86]: 2 nM and 3100 nM.

In the case of `Cn1cnc(C(=O)N[C@H]2CCC[C@H](Nc3nc(-c4c[nH]c5c(F)cc(F)cc45)c(C#N)cc3F)C2)c1` [Compound 183], inhibition in series [1] (MDCK, 72 h) was half-maximal at 1100 nM (IC50). The same compound had a CC50 at 3 days in “in vitro” above 25000 nM. The matching figures for `N#Cc1cc(F)c(N[C@H]2CCC[C@@H](NC(=O)c3ccccn3)C2)nc1-c1c[nH]c2c(F)cc(F)cc12` (racemic) [Compound 208]: 6 nM and above 25000 nM.

In series [1] (MDCK, 72 h), `O=C(NC1COCC(Nc2nc(-c3c[nH]c4c(F)cc(F)cc34)ncc2F)C1)c1cnn[nH]1` (centres unmarked) [Compound 261, N-(5-((2-(5,7-difluoro-1H-indol-3-yl)-5-fluoropyrimidin-4-yl)amino)-tetrahydro-2H-pyran-3-yl)-1H-1,2,3-triazole-5-carboxamide] yielded an IC50 of 1000 nM. This compound also yielded a CC50 at 3 days in the series “in vitro” above 25000 nM. The matching figures for `O=C(O)[C@H]1C2CCC(CC2)[C@@H]1Nc1nc(-c2c[nH]c3c(F)cc(Cl)cc23)ncc1F` [Compound 30]: 3 nM and 200 nM. Taken in the same sequence, the figures for `O=C(N[C@@H]1CCC[C@H](Nc2nc(-c3c[nH]c4c(F)ccc(F)c34)ncc2F)C1)N1CCCC1` (racemic) [Compound 7] were 460 nM and above 25000 nM.

On to `O=C(N[C@H]1CCC[C@@H](Nc2nc(-c3c[nH]c4c(F)cc(F)cc34)c(C(F)(F)F)cc2F)C1)c1cnccn1` (racemic) [Compound 180], for which, in series [1] (MDCK, 72 h), half-maximal inhibition (IC50) required 20 nM. Further, the CC50 at 3 days in the series “in vitro” is above 25000 nM. In series [1] (MDCK, 72 h), `Cc1cc(C(=O)N[C@@H]2CCC[C@@H](Nc3nc(-c4c[nH]c5c(F)cc(F)cc45)c(C#N)cc3F)C2)no1` [Compound 204] returned an IC50 of 10 nM. In “in vitro”, this compound came in with a CC50 at 3 days of 6800 nM.

For the compound `O=C(N[C@@H]1CCC[C@H](Nc2nc(-c3c[nH]c4c(F)cc(Cl)cc34)ncc2F)C1)c1ccccn1` [Compound 188], the IC50 in series [1] stood at 5 nM. The compound also showed a CC50 at 3 days in “in vitro” of 11000 nM. Compound `CC(C)(C)[C@@H](CC(=O)O)Nc1nc(-c2c[nH]c3c(F)cc(F)cc23)c(C(F)(F)F)cc1F` (single isomer, unassigned) [Compound 18, (R*)-3-((6-(5,7-difluoro-1H-indol-3-yl)-3-fluoro-5-(trifluoromethyl)pyridin-2-yl)amino)-4,4-dimethylpentanoic acid] gave an IC50 in series [1] (MDCK, 72 h) above 25000 nM. In “in vitro”, the CC50 at 3 days was 210 nM. The matching figures for `N#Cc1cc(F)c2[nH]cc(-c3ncc(F)c(N[C@H]4CCC[C@@H](NC(=O)c5ccccn5)C4)n3)c2c1` (racemic) [Compound 173]: 13 nM and above 25000 nM. Taken in the same sequence, the figures for `Cc1nc(C(=O)N[C@H]2CCC[C@@H](Nc3nc(-c4c[nH]c5c(F)cc(F)cc45)c(C(F)(F)F)cc3F)C2)c(C)o1` (racemic) [Compound 179] were 81 nM and above 25000 nM.

Regarding `Cc1cc(C(=O)N[C@H]2CCC[C@@H](Nc3nc(-c4c[nH]c5c(F)cc(F)cc45)c(C(F)(F)F)cc3F)C2)nn1C` (racemic) [Compound 177], inhibition in series [1] (MDCK, 72 h) was half-maximal at 38 nM (IC50). This compound also registered a CC50 at 3 days in the series “in vitro” of 14700 nM. The compound `O=C(N[C@@H]1CCC[C@H](Nc2nc(-c3c[nH]c4c(F)cc(C(F)(F)F)cc34)ncc2F)C1)c1ccccn1` (racemic) [Compound 263] yielded an IC50 in series [1] (MDCK, 72 h) of 15 nM. In the series “in vitro”, this compound showed a CC50 at 3 days of 3900 nM. Compound `Cn1cnc(C(=O)N[C@H]2CCC[C@@H](Nc3nc(-c4c[nH]c5c(F)cc(F)cc45)c(C(F)(F)F)cc3F)C2)c1` (relative stereo) [Compound 16, N-((1S*,3R*)-3-((6-(5,7-difluoro-1H-indol-3-yl)-3-fluoro-5-(trifluoromethyl)pyridin-2-yl)amino)cyclohexyl)-1-methyl-1H-imidazole-4-carboxamide] registered a half-maximal inhibitory concentration (IC50) in series [1] (MDCK, 72 h) of 22 nM. In the series “in vitro”, this compound showed a CC50 at 3 days of 3900 nM.

In series [1] (MDCK, 72 h), `CC(=O)NCc1cc(F)c(N[C@H]2CCC[C@@H](NC(=O)c3cn(C)cn3)C2)nc1-c1c[nH]c2c(F)cc(F)cc12` (racemic) [Compound 258] displayed an IC50 of 160 nM. Further, the CC50 at 3 days in the series “in vitro” is above 25000 nM. In series [1] (MDCK, 72 h), `CC[C@@]1(C(=O)O)CCCC[C@H]1Nc1nc(-c2c[nH]c3c(F)cc(F)cc23)ncc1F` [Compound 253] yielded an IC50 of 120 nM. Also, it took 15200 nM to reach half-maximal cytotoxicity in “in vitro” (CC50 at 3 days).

For `O=C(N[C@H]1CCC[C@@H](Nc2nc(-c3c[nH]c4c(F)cc(F)cc34)c(C(F)(F)F)cc2F)C1)c1ncn[nH]1` (racemic) [Compound 178], the IC50 in series [1] (MDCK, 72 h) worked out at 10 nM. Besides, in the series “in vitro”, the CC50 at 3 days was 2600 nM. Taken in the same sequence, the figures for `CC(C)(C)[C@H](CC(=O)O)Nc1nc(-c2c[nH]c3c(F)cc(F)cc23)c(C(F)(F)F)cc1F` (single isomer, unassigned) [Compound 17, (S*)-3-((6-(5,7-difluoro-1H-indol-3-yl)-3-fluoro-5-(trifluoromethyl)pyridin-2-yl)amino)-4,4-dimethylpentanoic acid] were 37 nM and 6200 nM. Taken in the same sequence, the figures for `O=C(O)[C@H]1[C@@H]2CC[C@@H](C2)[C@@H]1Nc1nc(-c2c[nH]c3c(F)cc(F)cc23)ncc1F` (racemic) [Compound 217, (+/−)-(2-exo, 3-endo)-3-((2-(5,7-difluoro-1H-indol-3-yl)-5-fluoropyrimidin-4-yl)amino)bicyclo[2.2.1]heptane-2-carboxylic Acid] were 22 nM and 5000 nM. The matching figures for `O=C(NC1CCOC1)N[C@@H]1CCC[C@H](Nc2nc(-c3c[nH]c4c(F)cc(F)cc34)ncc2F)C1` (relative stereo) [Compound 15, 1-((1R*,3S*)-3-((2-(5,7-difluoro-1H-indol-3-yl)-5-fluoropyrimidin-4-yl)-amino)cyclohexyl)-3-(tetrahydrofuran-3-yl)urea]: 42 nM and above 25000 nM. `Cn1nc(N)cc1C(=O)N[C@@H]1CCC[C@H](Nc2nc(-c3c[nH]c4c(F)cc(F)cc34)ncc2F)C1` [Compound 85] showed an IC50 in series [1] (MDCK, 72 h) of 2 nM. This compound registered a CC50 at 3 days in “in vitro” above 25000 nM. Turning to `Cn1cnc(C(=O)N[C@@H]2CCC[C@H](Nc3nc(-c4c[nH]c5c(F)cc(F)cc45)c(C#N)cc3F)C2)c1` (racemic) [Compound 3], the IC50 in series [1] (MDCK, 72 h) is 5 nM. In “in vitro”, this compound had a half-maximal cytotoxic concentration (CC50) at 3 days above 25000 nM. With `CC(C)(C)C(CC(=O)O)Nc1nc(-c2c[nH]c3c(F)cc(F)cc23)ncc1F` (racemic) [Compound 2], the concentration for half-maximal inhibition (IC50) in series [1] (MDCK, 72 h) was determined as 11 nM. The compound further displayed a cytotoxic concentration (CC50) at 3 days in “in vitro” of 5200 nM. The matching figures for `O=C(O)[C@@H]1CCCC[C@@H]1Nc1nc(-c2c[nH]c3c(F)cc(F)cc23)ncc1F` [Compound 254]: 320 nM and 14700 nM.

As to `CC(=O)Nc1cc(C(=O)N[C@@H]2CCC[C@H](Nc3nc(-c4c[nH]c5c(F)cc(F)cc45)ncc3F)C2)n(C)n1` (relative stereo) [Compound 228, 3-acetamido-N-((1R*,3S*)-3-((2-(5,7-difluoro-1H-indol-3-yl)-5-fluoropyrimidin-4-yl)amino)cyclohexyl)-1-methyl-1H-pyrazole-5-carboxamide], inhibition in series [1] (MDCK, 72 h) was half-maximal at 9 nM (IC50). This compound showed a CC50 at 3 days in “in vitro” above 25000 nM. In series [1] (MDCK, 72 h), `Cn1cnc(C(=O)N[C@@H]2CCC[C@H](Nc3nc(-c4c[nH]c5c(F)cc(C#N)cc45)ncc3F)C2)c1` (racemic) [Compound 174] had an IC50 of 10 nM. In “in vitro”, this compound displayed a CC50 at 3 days above 25000 nM. `CC[C@]1(C(=O)O)CCCC[C@@H]1Nc1nc(-c2c[nH]c3c(F)cc(F)cc23)ncc1F` (racemic) [Compound 252] gave an IC50 in series [1] (MDCK, 72 h) of 350 nM. For the same compound, the CC50 at 3 days in “in vitro” turned out to be 8200 nM.

The compound `O=C(N[C@@H]1CCC[C@H](Nc2nc(-c3c[nH]c4c(F)cc(F)cc34)ncc2F)C1)c1ccno1` (racemic) [Compound 97] registered an IC50 in series [1] (MDCK, 72 h) of 12 nM. The CC50 at 3 days in the series “in vitro” was above 22700 nM. Taken in the same sequence, the figures for `Cn1cnc(C(=O)N[C@H]2CCC[C@@H](Nc3nc(-c4c[nH]c5c(F)cc(Cl)cc45)c(C#N)cc3F)C2)c1` (racemic) [Compound 189] were 4 nM and 7300 nM. Turning to `N#Cc1cc(F)c(N[C@H]2CCC[C@@H](NC(=O)N3CCCC3)C2)nc1-c1c[nH]c2c(F)cc(F)cc12` (racemic) [Compound 4], the IC50 in series [1] (MDCK, 72 h) was determined as 4 nM. This compound also registered a CC50 at 3 days in “in vitro” above 25000 nM. Taken in the same sequence, the figures for `CCn1ccnc1C(=O)N[C@@H]1CCC[C@H](Nc2nc(-c3c[nH]c4c(F)cc(F)cc34)ncc2F)C1` [Compound 125] were 4 nM and 10200 nM. Taken in the same sequence, the figures for `CC1(C(CC(=O)O)Nc2nc(-c3c[nH]c4c(F)cc(F)cc34)ncc2F)CCCC1` (centres unmarked) [Compound 249] were 11 nM and 1200 nM. Taken in the same sequence, the figures for `O=C(N[C@@H]1CCC[C@H](Nc2nc(-c3c[nH]c4c(F)cc(F)cc34)ncc2F)C1)c1cc(=O)[nH][nH]1` [Compound 158] were 15 nM and 13000 nM. With `CC(C)c1cc(C(=O)N[C@H]2CCC[C@@H](Nc3nc(-c4c[nH]c5c(F)cc(F)cc45)c(C(F)(F)F)cc3F)C2)no1` (racemic) [Compound 182], the CC50 at 3 days in “in vitro” was above 25000 nM.
